Reference: PMC6628017, “Advanced Glycation End-Products Can Activate or Block Bitter Taste Receptors” (Nutrients, 2019)
Entries after “also recorded” stand apart in the source; their conditions may differ. Counter-ions that a name gives are not always drawn. Like-named read-outs stand apart in the source and are kept apart here.

What was measured:
T2R4 [1] = biological target: T1, T2R4 (Homo sapiens, UniProt Q9NYW5); conditions: cited from earlier work
T1 sequence (Q9NYW5 1-299): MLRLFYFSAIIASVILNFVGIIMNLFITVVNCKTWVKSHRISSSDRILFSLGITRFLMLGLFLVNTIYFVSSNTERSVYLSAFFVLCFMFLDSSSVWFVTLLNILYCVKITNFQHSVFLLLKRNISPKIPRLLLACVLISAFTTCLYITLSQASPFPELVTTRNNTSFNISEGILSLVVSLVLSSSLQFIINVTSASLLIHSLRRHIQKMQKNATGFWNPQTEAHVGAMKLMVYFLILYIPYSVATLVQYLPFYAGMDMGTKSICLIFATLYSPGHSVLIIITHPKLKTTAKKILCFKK

T2R14 = biological target: T2, T2R14 (Homo sapiens, UniProt Q9NYV8); assay: Calcium mobilization assay, HEK293T cells stably expressing T2R14; assay type: cell-based; conditions: for Calcium response by compound alone, T2R14 cells: 100 μM; for Inhibition of DPH-activated T2R14 calcium mobilization: 3–200 μM AGE with DPH 500 μM
T2 sequence (Q9NYV8 1-317): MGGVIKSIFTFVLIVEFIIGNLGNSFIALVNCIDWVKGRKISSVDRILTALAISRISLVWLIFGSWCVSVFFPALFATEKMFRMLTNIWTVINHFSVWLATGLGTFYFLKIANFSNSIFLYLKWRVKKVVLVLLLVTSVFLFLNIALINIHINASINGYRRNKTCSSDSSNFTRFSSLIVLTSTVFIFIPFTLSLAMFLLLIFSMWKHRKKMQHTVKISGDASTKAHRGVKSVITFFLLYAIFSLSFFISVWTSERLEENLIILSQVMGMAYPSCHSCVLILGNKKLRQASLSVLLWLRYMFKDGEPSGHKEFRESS
From the text: (§1) Human Embryonic Kidney (HEK293T) cell line was purchased from ATCC (Manassas, VA, USA). N-terminal FLAG epitope tagged human TAS2R4, TAS2R14, and TAS2R20 genes were codon-optimized for expression in mammalian cells and cloned into the KpnI-NotI site of pcDNA 3.1/Hygro (+) expression vector, and they were commercially synthesized (GenScript Inc., Piscataway, MA, USA) as previously described in Reference. We generated stable HEK293T cells expressing the above T2Rs in the selection medium containing 200 μg/mL hygromycin as described previously in References.
(§2) Calcium mobilization assays on each T2R expressing stable cells were performed by incubation with Fluo-4 NW dye containing probenecid (2.5 mM) for 35 min at 37 °C, followed by 35 min at room temperature. We then treated the cells either with the putative agonist alone or in combination with the AGE compound. To elucidate the action of AGEs on T2Rs, the cells were initially treated with a fixed concentration (100 μM). To determine IC50 for AGE compounds, the agonist concentration was kept constant whilst the AGE compound was added in a concentration dependent manner (3 μM to 200 μM). To determine EC50 for the agonists, we used a concentration range from 3 μM to 200 μM. The Flexstation-3 automated fluorescence microplate reader (Molecular devices) was used to measure the calcium at 525 nm emission, followed by excitation at 494 nm. ΔRFU (relative fluorescence units) were calculated by the system based on the difference between the maximum response and minimum response. We used HEK293T cells as the control for baseline subtraction. The data were collected from at least three independent experiments performed in triplicates and analyzed using GraphPad Prism V. 6.0 (GraphPadSoftware, La Jolla, CA, USA).

T2R20 = biological target: T3, T2R20 (Homo sapiens, UniProt P59543); assay: Calcium mobilization assay, HEK293T cells stably expressing T2R20; assay type: cell-based; conditions: for Activation of T2R20 by compound alone: 100 μM; for EC50: 3–200 μM, ± standard deviation, read-out: EC50, activation of T2R20 calcium mobilization
T3 sequence (P59543 1-309): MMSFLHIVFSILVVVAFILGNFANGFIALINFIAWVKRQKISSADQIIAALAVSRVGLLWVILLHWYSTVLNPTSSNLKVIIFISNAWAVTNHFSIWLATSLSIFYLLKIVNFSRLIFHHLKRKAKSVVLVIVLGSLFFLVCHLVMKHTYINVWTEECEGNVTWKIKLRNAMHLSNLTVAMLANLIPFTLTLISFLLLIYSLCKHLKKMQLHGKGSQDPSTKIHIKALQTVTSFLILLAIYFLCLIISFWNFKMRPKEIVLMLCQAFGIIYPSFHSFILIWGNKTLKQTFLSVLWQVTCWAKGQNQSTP
From the text: as §1, §2

T2R4 [2] = biological target: T1, T2R4; assay: Calcium mobilization assay, HEK293T cells stably expressing T2R4; assay type: cell-based; conditions: for Calcium mobilization by compound alone, T2R4 cells: 100 μM, compared to basal; for IC50: 3–200 μM AGE with quinine 1 mM, ± standard deviation, read-out: IC50, inhibition of quinine-activated T2R4 calcium mobilization
From the text: as §1, §2

[3] = Solubility in calcium assay buffer; assay type: physicochemical; conditions: 1X HBSS, 20 mM HEPES
From the text: The cell-culture medium was composed of Dulbecco’s modified Eagle’s medium-F12 (Gibco, Life technologies, Carlsbad, CA, USA) supplemented with 10% heat-inactivated fetal bovine serum (Sigma, Burlington, MA, USA) and 1% penicillin-streptomycin (Gibco, Life technologies). We used hygromycin (Sigma Aldrich, Oakville, ON, Canada) in the selection medium to generate stable cells. All bitter compounds (quinine hydrochloride, diphenhydramine or DPH, and cromolyn) were purchased from Sigma Aldrich (Oakville, ON, Canada). We purchased glyoxal-derived lysine dimer (GOLD) and Nε-Carboxymethyl-L-lysine (CML) from PolyPeptide Laboratories (Strasbourg, France). All the compounds were freshly prepared using calcium assay buffer (1X HBSS, 20 mM HEPES) on the day of the experiment. Calcium sensitive dye Fluo-4 NW kit was purchased from Life technologies (Carlsbad, CA USA).

NCCCC[C@@H](C(=O)O)N(CC(=O)O)CC(=O)O [BCML, Nα, Nα-bis(carboxymethyl)-L-lysine]
IC50 (T2R4 [1]; read-out: IC50 against quinine, T2R4 antagonist): 0.06 µM

N[C@@H](CCCCNCC(=O)O)C(=O)O [CML, Nε-Carboxymethyl-L-lysine]
Calcium response by compound alone, T2R14 cells (T2R14): did not show any calcium response | Inhibition of DPH-activated T2R14 calcium mobilization (T2R14): no significant effect in suppressing the DPH activation of T2R14 | Activation of T2R20 by compound alone (T2R20): activated T2R20 | EC50 (T2R20): 65.3 ± 17.8 µM | Calcium mobilization by compound alone, T2R4 cells (T2R4 [2]): did not cause a significant increase in calcium mobilization | IC50 (T2R4 [2]): 32.6 ± 9.5 µM

NC(CCCCn1cc[n+](CCCCC(N)C(=O)O)c1)C(=O)O (centres unmarked) [GOLD, glyoxal-derived lysine dimer]
Calcium response by compound alone, T2R14 cells (T2R14): did not show any calcium response | Inhibition of DPH-activated T2R14 calcium mobilization (T2R14): did not generate a reverse sigmoid curve to determine the IC50 value; also recorded: no dose-dependent inhibition observed | Activation of T2R20 by compound alone (T2R20): activated T2R20 | EC50 (T2R20): 79.3 ± 29.2 µM | Calcium mobilization by compound alone, T2R4 cells (T2R4 [2]): did not cause a significant increase in calcium mobilization | IC50 (T2R4 [2]): 10.5 ± 4.7 µM

CC(NCCCC[C@H](N)C(=O)O)C(=O)O (some centres unmarked) [Nε-Carboxyethyl Lysine (CEL), Nε-Carboxyethyl Lysine]
Solubility in calcium assay buffer [3]: insoluble or only slightly soluble

O=C(O)c1cc(=O)c2c(OCC(O)COc3cccc4oc(C(=O)O)cc(=O)c34)cccc2o1 [cromolyn, reference compound]
EC50 (T2R20): 50.7 ± 15.1 µM

C=C[C@H]1C[N@@]2CC[C@H]1C[C@H]2[C@H](O)c1ccnc2ccc(OC)cc12 [quinine, quinine hydrochloride]
EC50 (T2R4 [1]; agonist): 1000 µM

Pentosidine
Solubility in calcium assay buffer [3]: insoluble or only slightly soluble
